In patent US20050009924A1 (priority 2003, published 2005):

What was measured:
[1] = MTT relative viability, PhTERT-SEAP (H1299) cells; details: human
[2] = test system: rat glioma C6 cells; assay: Cytotoxicity assay (XTT colorimetric), C6 cells; format: cell-based; details: 48 h of drug exposure
[3] = test system: transcriptional activity of hTERT; assay: SEAP reporter assay of hTERT expression, PhTERT-SEAP (H1299); format: cell-based, human
Protocol: (§1) Secreted alkaine phosphatase was used as the reporter system to monitor the transcriptional activity of hTERT. Here, about […] each were grown in 96-well plates and incubated at 37° C. for 24 h and changed with fresh media. Varying amounts of drugs were added and cells were incubated for another 24 h. Culture media were collected and heated at 65° C. for 10 min to inactivate heat-labile phosphatases. An equal amount of SEAP buffer (2 M diethanolamine, 1 mM MgCl2, and 20 mM […]) was added to the media and p-nitrophenyl phosphate was added to a final concentration of 12 mM. Absorptions at 405 nm were taken, and the rate of absorption increase is determined.
(§2) Culture media were changed every 3 days. […] The stable clones were selected using G418.

[4] = test system: human hepatoma G2 cells; assay: Cytotoxicity assay (XTT colorimetric), Hep G2; format: cell-based; details: 48 h of drug exposure
[5] = test system: hepatitis B virus transfected hepatoma cell lines, HepG 2.2.15 cells; assay: Cytotoxicity assay, 2.2.15 cells; format: cell-based, human; details: 48 h of drug exposure
[6] = MTT relative viability, PhTERT-SEAP (hTERT-BJ1) cells; details: human
[7] = test system: transcriptional activity of hTERT; assay: SEAP reporter assay of hTERT expression, PhTERT-SEAP (hTERT-BJ1); format: cell-based, human
Protocol: as §1, §2

[8] = Homo sapiens, NCI-H1299, hTERT-H1299, read-out: Relative SEAP activity (%)
[9] = Homo sapiens, hTERT-BJ1, read-out: Relative SEAP activity (%)
[10] = hTERT-BJ1 cells stably transfected with PhTERT-SEAP reporter

CC(C)CNc1cccc2c1C(=O)c1cccc(NCC(C)C)c1C2=O
viability at 48 h, 2.8 µM [1]: 108 ± 4.8% | viability at 48 h, 28 µM [1]: 106 ± 3.7% | viability at 48 h, 285 µM [1]: 80 ± 4.8% | IC50 ([2]; Rattus norvegicus, C6): 12.7 ± 0.37 µM | activity at 2.8 µM [3, 8]: 94 ± 7% | activity at 28 µM [3, 8]: 91 ± 2.5% | activity at 285 µM [3, 8]: 75 ± 4.1% | IC50 ([4]; Homo sapiens, HepG2): 14.3 ± 1.54 µM | IC50 ([5]; Homo sapiens, HepG2.2.15): > 20 µM | viability at 48 h, 285 µM [6]: 72 ± 3.3% | viability at 48 h, 2.8 µM ([6]; hTERT-BJ1 cells): 110 ± 7.6% | viability at 48 h, 28 µM ([6]; hTERT-BJ1 cells): 103 ± 3% | activity at 2.8 µM [7, 9]: 22 ± 18.3% | activity at 28 µM [7, 9]: 22 ± 21.4% | activity at 285 µM [7, 9]: 29 ± 3.9%

NCCCNc1cccc2c1C(=O)c1cccc(NCCCN)c1C2=O
viability at 48 h, 2.8 µM [1]: 85 ± 11.5% | viability at 48 h, 28 µM [1]: 32 ± 9.3% | viability at 48 h, 283 µM [1]: 16 ± 2.1% | IC50 ([2]; Rattus norvegicus, C6): 12.18 ± 0.04 µM | activity at 2.8 µM [3, 8]: 102 ± 4.9% | activity at 28 µM [3, 8]: 44 ± 7.5% | activity at 283 µM ([3]; Homo sapiens, NCI-H1299, 283 μM, hTERT-H1299, read-out: Relative SEAP activity (%)): 38 ± 6% | IC50 ([4]; Homo sapiens, HepG2): 11.67 ± 0.09 µM | IC50 ([5]; Homo sapiens, HepG2.2.15): 7.48 µM | viability at 48 h, 2.8 µM ([6]; hTERT-BJ1 cells): 85 ± 6.9% | viability at 48 h, 28 µM ([6]; hTERT-BJ1 cells): 3 ± 6.9% | activity at 2.8 µM [7, 9]: 103 ± 19.8% | activity at 28 µM [7, 9]: 47 ± 20.5% | activity at 283 µM ([7]; Homo sapiens, 283 μM, hTERT-BJ1, read-out: Relative SEAP activity (%)): 60 ± 15.1%

COc1cccc2c1C(=O)c1c(O)c3c(c(O)c1C2=O)C[C@@](O)(C(=O)CO)C[C@@H]3O[C@H]1C[C@H](N)[C@H](O)[C@H](C)O1 [Adriamycin, reference compound]
IC50 ([2]; Rattus norvegicus, C6): 1 µM | IC50 ([4]; Homo sapiens, HepG2): 0.9 ± 0.01 µM | IC50 ([5]; Homo sapiens, HepG2.2.15): 1.6 µM

N.N.[Cl][Pt][Cl] [Cisplatin, reference compound]
IC50 [2]: > 1 µM | IC50 [4]: 1.48 ± 0.62 µM | IC50 [5]: 2 ± 0.54 µM

CN(C)CCNc1cccc2c1C(=O)c1cccc(NCCN(C)C)c1C2=O [IVd, 1,5-Bis(2-dimethylaminoethylamino)anthraquinone]
viability at 48 h, 2.6 µM [1]: 107 ± 9.1% | viability at 48 h, 26 µM [1]: 81 ± 8.3% | viability at 48 h, 262 µM [1]: 29 ± 2.6% | IC50 ([2]; Rattus norvegicus, C6): 0.12 µM | activity at 2.6 µM ([3]; Homo sapiens, NCI-H1299, 2.6 μM, hTERT-H1299, read-out: Relative SEAP activity (%)): 103 ± 6% | activity at 26 µM ([3]; Homo sapiens, NCI-H1299, 26 μM, hTERT-H1299, read-out: Relative SEAP activity (%)): 54 ± 5.9% | activity at 262 µM ([3]; Homo sapiens, NCI-H1299, 262 μM, hTERT-H1299, read-out: Relative SEAP activity (%)): 40 ± 5.9% | IC50 ([4]; Homo sapiens, HepG2): 0.09 ± 0.01 µM | IC50 ([5]; Homo sapiens, HepG2.2.15): 0.13 µM | viability at 48 h, 2.6 µM ([6]; hTERT-BJ1 cells): 92 ± 4.8% | viability at 48 h, 26 µM ([6]; hTERT-BJ1 cells): 76 ± 5.9% | viability at 48 h, 262 µM ([6]; hTERT-BJ1 cells): 7 ± 18.2% | activity at 2.6 µM ([7]; Homo sapiens, 2.6 μM, hTERT-BJ1, read-out: Relative SEAP activity (%)): 11 ± 22.4% | activity at 26 µM ([7]; Homo sapiens, 26 μM, hTERT-BJ1, read-out: Relative SEAP activity (%)): -15% | activity at 262 µM ([7]; Homo sapiens, 262 μM, hTERT-BJ1, read-out: Relative SEAP activity (%)): -26%

CCCCNc1cccc2c1C(=O)c1cccc(NCCCC)c1C2=O [IVj, 1,5-Bis(butylamino)anthraquinone]
viability at 48 h, 2.8 µM [1]: 102 ± 7% | viability at 48 h, 28 µM [1]: 104 ± 9.2% | viability at 48 h, 285 µM [1]: 81 ± 13.9% | IC50 ([2]; Rattus norvegicus, C6): > 20 µM | activity at 2.8 µM [3, 8]: 106 ± 7.1% | activity at 28 µM [3, 8]: 105 ± 5.5% | activity at 285 µM [3, 8]: 98 ± 5.2% | IC50 ([4]; Homo sapiens, HepG2): > 20 µM | IC50 ([5]; Homo sapiens, HepG2.2.15): > 20 µM | viability at 48 h, 285 µM [6]: 75 ± 5.9% | viability at 48 h, 2.8 µM ([6]; hTERT-BJ1 cells): 109 ± 9.1% | viability at 48 h, 28 µM ([6]; hTERT-BJ1 cells): 99 ± 5.9% | activity at 2.8 µM [7, 9]: 98 ± 27.4% | activity at 28 µM [7, 9]: 103 ± 27% | activity at 285 µM [7, 9]: 123 ± 22.9%

O=C1c2cccc(NC3CCCC3)c2C(=O)c2cccc(NC3CCCC3)c21 [IVo, 1,5-Bis(cyclopentaneamino)-anthraquinone]
IC50 [2]: > 20 µM | IC50 [4]: > 20 µM | IC50 [5]: > 20 µM

O=C1c2cccc(Nc3ccc(O)cc3)c2C(=O)c2cccc(Nc3ccc(O)cc3)c21 [IVq, 1,5-Bis(phenolamino)-anthraquinone]
IC50 [2]: 14.21 ± 0.08 µM | IC50 [4]: 4.2 ± 0.76 µM | IC50 [5]: > 20 µM

CC(=O)Nc1ccc(NC(C)=O)c2c1C(=O)c1ccccc1C2=O [VI3, 1,4-Bisacetamido-9,10-anthracenedione]
viability at 48 h, 3.1 µM [1]: 109 ± 3.5% | viability at 48 h, 31 µM [1]: 108 ± 3.6% | viability at 48 h, 310 µM [1]: 37 ± 1.3% | IC50 ([2]; Rattus norvegicus, C6): > 20 µM | SEAP/vibility ([3]; 3.1 μM, PhTERT-SEAP(hTERT-H1299)): 0.78 | SEAP/vibility ([3]; 31 μM, PhTERT-SEAP(hTERT-H1299)): 0.83 | SEAP/vibility ([3]; 310 μM, PhTERT-SEAP(hTERT-H1299)): 2.16 | activity at 3.1 µM ([3]; Homo sapiens, NCI-H1299, 3.1 μM, PhTERT-SEAP(hTERT-H1299), read-out: Relative SEAP activity (%)): 85 ± 2.3% | activity at 31 µM ([3]; Homo sapiens, NCI-H1299, 31 μM, PhTERT-SEAP(hTERT-H1299), read-out: Relative SEAP activity (%)): 90 ± 3.3% | activity at 310 µM ([3]; Homo sapiens, NCI-H1299, 310 μM, PhTERT-SEAP(hTERT-H1299), read-out: Relative SEAP activity (%)): 80 ± 3.1% | IC50 ([4]; Homo sapiens, HepG2): > 20 µM | IC50 ([5]; Homo sapiens, HepG2.2.15): > 20 µM | viability at 48 h, 3.1 µM [6, 10]: 117 ± 3% | viability at 48 h, 31 µM [6, 10]: 95 ± 11.9% | viability at 48 h, 310 µM [6, 10]: 49 ± 8.9% | SEAP/vibility ([7]; 3.1 μM, PhTERT-SEAP (hTERT-BJ1)): 0.66 | SEAP/vibility ([7]; 31 μM, PhTERT-SEAP (hTERT-BJ1)): 0.87 | SEAP/vibility ([7]; 310 μM, PhTERT-SEAP (hTERT-BJ1)): 1.20 | activity at 3.1 µM ([7]; Homo sapiens, 3.1 μM, PhTERT-SEAP (hTERT-BJ1), read-out: Relative SEAP activity (%)): 77 ± 12.4% | activity at 31 µM ([7]; Homo sapiens, 31 μM, PhTERT-SEAP (hTERT-BJ1), read-out: Relative SEAP activity (%)): 83 ± 10% | activity at 310 µM ([7]; Homo sapiens, 310 μM, PhTERT-SEAP (hTERT-BJ1), read-out: Relative SEAP activity (%)): 59 ± 15.2%

CCNc1cccc2c1C(=O)c1c(NCC)cccc1C2=O [Va, 1,8-Bis(ethylamine)-anthraquinone]
IC50 [2]: > 20 µM | IC50 [4]: > 20 µM | IC50 [5]: > 20 µM

CCCNc1cccc2c1C(=O)c1c(NCCC)cccc1C2=O [Vb, 1,8-Bis(propylamine)-anthraquinone]
IC50 [2]: 0.61 ± 0.01 µM | IC50 [4]: 0.19 µM | IC50 [5]: 1.06 µM

CCCCNc1cccc2c1C(=O)c1c(NCCCC)cccc1C2=O [Vc]
IC50 [2]: > 20 µM | IC50 [4]: > 20 µM | IC50 [5]: > 20 µM
